Data taken from patent publication US6958340B2, “Tyrosine kinase inhibitors” (Merck & Co., Inc., priority 2001, dated 2005).

**Q.** Which melting point does the source give for Cc1cc(C)cc(Nc2nccc(-n3ccnc3-c3ccccc3)n2)c1 [Compound 1-24, N-(3,5-dimethylphenyl)-4-(2-phenyl-1H-imidazol-1-yl)pyrimidin-2-amine] here?
**A.** 183 °C
